Tests used:
human CLR/RAMP1 = target: T1, human CLR/RAMP1 (Homo sapiens, UniProt O60894+Q16602); experiment: CLR/RAMP1 receptor-activation assay (DiscoverX cAMP Hunter, HitHunter cAMP XS+); assay type: cell-based
T1 construct: host or cells: 1321N1 cells (cAMP Hunter cell line)
Description: (§1) The bioactivity of peptide analogs was studied using CLR/RAMP1, CLR/RAMP2, and CLR/RAMP3 assays by DiscoveRx (Fremont, CA, USA) in cells that stably express human CLR/RAMP1 (1321N1 cells), CLR/RAMP2 (CHO-K1 cells), or CLR/RAMP3 (CHO-K1 cells). The dose-dependent stimulatory effect of agonists was studied in duplicate, at 10 different concentrations. Determination of the half-maximal effective concentration (EC50) was performed using a 10-point dose-response curves. The starting concentration was 1.0 μM, and it was serially diluted 3-fold, in DMSO.
Cells were seeded in a total volume of 20 μL into 384-well microplates, and the activity was determined using the DiscoverX HitHunter cAMP XS + assay. Before the assay, media was aspirated from cells and replaced with 15 μL 2:1 HBSS/10 mM Hepes: cAMP XS + Ab reagent. Intermediate dilution of samples was performed to generate 4X sample in assay buffer, and 5 μL of the 4X sample was added to cells and incubated at 37°C. Vehicle concentration was 1%.
The chemiluminescent signal was read with a PerkinElmer instrument.

human CLR/RAMP2 = target: T2, human CLR/RAMP2 (Homo sapiens, UniProt O60895+Q16602); experiment: CLR/RAMP2 receptor-activation assay (PathHunter β-Arrestin); assay type: cell-based
T2 construct: host or cells: CHO-K1 cells (PathHunter β-Arrestin cell line)
Description: as §1
In this assay, the CLR was fused in frame with a small enzyme donor fragment ProLink™ (PK). The receptor was co-expressed with a fusion protein of β-arrestin and an N-terminal deletion mutant of β-galactosidase (i.e., enzyme acceptor). Activation of the CLR/RAMP2 receptor stimulated the binding of β-arrestin to the PK-tagged receptor and led to an increase in enzyme activities which can then be measured with the PathHunter detection reagents. PathHunter cell lines were seeded in a total volume of 20 μL into 384-well microplates and incubated at 37 °C prior to the assay. Intermediate dilution of samples was performed to generate 5X samples in the assay buffer. A 5 μL aliquot of 5X sample was added to cells and incubated at 37 °C for 90 min. Vehicle concentration was 1%.

[1] = Passage of peptide molecules through Centricon filters; assay type: physicochemical
Description: To evaluate whether gel formation reduces the movement of peptide molecules in solution, we used the Centricon® filters (Millipore) to separate samples and the carriers based on their molecular mass. The sample is monomeric peptide, and the carrier is the self-assembled gel. […] Ten minutes later, the solution was diluted to the 0.1% level, and aliquots of the samples were dispensed into separate Centricon columns (30,000 MW cutoff). The monomeric peptides and gel molecules were separated by centrifugation for 15 min (2000× g). The level of peptide in the elutes was determined by specific EIAs (Phoenix Pharmaceuticals Inc., Burlingame, CA, USA).

[2] = Release of Analog C-6 from the gel solution in vivo (single-dose pharmacokinetics); design: species or system Sprague–Dawley rats; details: plasma
Description: Single-dose pharmacokinetics of the Analog C-6 gel solution was investigated in male Sprague–Dawley rats. Rats received a gel solution via the subcutaneous route, and blood samples were collected at pre-dose, 8 h, 1, 2, 4, and 8 days via a catheter that had been cannulated to the jugular vein. Plasma was obtained by centrifugation, and the peptide level in samples was determined by specific ADM EIA (Phoenix Pharmaceuticals Inc.).

[3] = Microrheology viscosity assay (Rheosense viscometer); assay type: physicochemical; details: 5% peptide solution in 5% glucose
Description: We initially determined the gel-forming capability of peptides qualitatively based on a visual examination of the gel solution using a tube-tapping method. Once we have a rough estimate of the gel-forming capability, we quantitatively determine the viscosity of select peptides using a Rheosense viscometer (Rheosense Inc.; http://www.rheosense.com, accessed on 1 December 2019). In the visual assay, aliquots of peptides were dissolved in an aqueous solution (i.e., de-ionized water, saline, or 5% glucose solution). The peptide that dissolves instantly and stays as a clear solution without obvious macroscopic change in viscosity at 20 min after mixing was considered soluble. If macroscopic particles of peptides remained in the solution for 20 min after mixing, the peptide was considered insoluble. […] In addition, we quantitatively determined the viscosity of Analog C-6 and control peptides using a viscometer. The Rheosense microrheology viscometer uses a “chip” flow channel to quantify the viscosity of a solution as small as 50 μL. After loading the aqueous solution, the sample was injected through the flow channel with multiple pressure sensors, and the rheological properties were determined based on the standard principles of rheometry.

T1 sequence (Q16602 23-461): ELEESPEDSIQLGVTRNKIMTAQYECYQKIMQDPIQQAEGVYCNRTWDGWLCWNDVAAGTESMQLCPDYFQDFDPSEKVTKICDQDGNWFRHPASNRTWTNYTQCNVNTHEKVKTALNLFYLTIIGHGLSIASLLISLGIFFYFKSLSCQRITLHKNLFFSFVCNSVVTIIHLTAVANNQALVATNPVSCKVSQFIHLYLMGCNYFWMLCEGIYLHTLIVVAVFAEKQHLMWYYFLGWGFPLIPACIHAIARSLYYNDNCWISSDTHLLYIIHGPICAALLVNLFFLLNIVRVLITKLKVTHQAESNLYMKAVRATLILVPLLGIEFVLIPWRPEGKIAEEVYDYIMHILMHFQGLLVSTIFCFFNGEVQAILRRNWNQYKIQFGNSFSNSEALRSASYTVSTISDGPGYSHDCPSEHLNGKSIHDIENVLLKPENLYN
T1 sequence (O60894 27-148): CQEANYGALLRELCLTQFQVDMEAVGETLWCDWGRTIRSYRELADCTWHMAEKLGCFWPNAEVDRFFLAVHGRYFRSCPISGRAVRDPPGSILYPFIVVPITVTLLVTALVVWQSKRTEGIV
T2 sequence (Q16602 23-461): as the sequence (Q16602 23-461) above
T2 sequence (O60895 43-175): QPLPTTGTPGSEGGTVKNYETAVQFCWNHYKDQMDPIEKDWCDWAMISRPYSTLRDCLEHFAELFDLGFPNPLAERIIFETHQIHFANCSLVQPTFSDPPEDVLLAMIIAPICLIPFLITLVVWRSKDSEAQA

Molecule | EC50 (human CLR/RAMP1; 1321N1 cells stably expressing human CLR/RAMP1, cAMP read-out, 10-point dose-response in duplicate, start 1.0 μM, 3-fold serial dilution in DMSO) | Emax (human CLR/RAMP1; percentage of positive control β-CGRP, read-out: CLR/RAMP1 Max Activity) | EC50 (human CLR/RAMP2; CHO-K1 cells stably expressing human CLR/RAMP2, β-arrestin recruitment, 90 min at 37 °C, 10-point dose-response in duplicate, start 1.0 μM, 3-fold dilution in DMSO) | Emax (human CLR/RAMP2; […], percentage of positive control ADM1-52, read-out: CLR/RAMP2 Max Activity) | solubility in saline solution ([1]; 0.1% peptide in saline) | time during which circulating level was significantly increased ([2]; male Sprague–Dawley rats, s.c., 32 mg in 16% gel solution, ADM EIA, n = 3) | Tmax ([2]; male, Sprague-Dawley, rat, sc, 32 mg, read-out: time of peak circulating peptide level) | viscosity compared with water [3] | peptide level in Centricon elute, 5% and 20% solution groups versus 0.1% solution ([1]; Centricon 30,000 MW cutoff, 2000× g 15 min, 5% glucose, samples diluted to 0.1% after 10 min, CGRP or ADM EIA, triplicate)
CCCCCCCCCCCCCCCC(=O)NCCCC[C@H](N)C(=O)NCC(=O)N[C@H]1CSSC[C@@H](C(=O)N[C@H](C(=O)N[C@H](C(=O)N[C@@H](CCC(N)=O)C(=O)N[C@@H](CCCCN)C(=O)N[C@@H](CC(C)C)C(=O)N[C@@H](C)C(=O)N[C@@H](Cc2c[nH]cn2)C(=O)N[C@@H](CCC(N)=O)C(=O)N[C@H](C(=O)N[C@@H](Cc2ccc(O)cc2)C(=O)N[C@@H](CCC(N)=O)C(=O)N[C@@H](Cc2ccccc2)C(=O)N[C@H](C(=O)N[C@@H](CC(=O)O)C(=O)N[C@@H](CCCCN)C(=O)N[C@@H](CC(=O)O)C(=O)N[C@@H](CCCCN)C(=O)N[C@@H](CC(=O)O)C(=O)N[C@@H](CC(N)=O)C(=O)N[C@H](C(=O)N[C@@H](C)C(=O)N2CCC[C@H]2C(=O)N[C@@H](CCCNC(=N)N)C(=O)N[C@@H](CO)C(=O)N[C@@H](CCCCN)C(=O)N[C@H](C(=O)N[C@@H](CO)C(=O)N2CCC[C@H]2C(=O)N[C@@H](CCC(N)=O)C(=O)NCC(=O)N[C@@H](Cc2ccc(O)cc2)C(N)=O)[C@@H](C)CC)C(C)C)[C@@H](C)O)[C@@H](C)CC)C(C)C)[C@@H](C)O)NC(=O)[C@H]([C@@H](C)O)NC(=O)CNC(=O)[C@H](Cc2ccccc2)NC(=O)[C@H](CCCNC(=N)N)NC1=O [Analog C-6] | 0.024 µM | 78% | 0.0028 µM | 87% | low solubility | 8 to 48 h | 8 h | – | –
adrenomedullin [ADM, reference compound] | – | – | – | – | – | – | – | significantly higher than that of water | lower than that of the 0.1% solution group
